From patent US6512000B1, “Aminocarbonyl-substituted benzimidazoles having tryptase-inhibitory activity” (Boehringer Ingelheim Pharma KG, priority 1999, dated 2003)
Where a name gives a salt, the structure may show the parent alone.

Key:
rh beta tryptase = molecular target: T1, rh beta tryptase (Homo sapiens, UniProt P20231); experiment: Tryptase inhibition test (cleavage of N-p-tosyl-Gly-Pro-Lys-para-nitroaniline, p-nitroaniline measured at 405 nm); type: biochemical; details: concentration at which 50% of the tryptase enzyme activity is inhibited; substrate 0.6 mM, pH 7.4, 37° C.
T1 construct: purchased Promega
Procedure, shortened: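 Screening at 10 μM gives percent inhibition, with IC50 derived for compounds above 70% inhibition. Enzyme: rh beta tryptase, 0.91 U/ml, pH 7.4 Tris HCl (100 mM), 5 mM Ca, 100 mg/ml heparin. After 5 min compound pre-incubation, 0.6 mM pNA substrate cleaved 5 min at 37 °C, monitored at 405 nm.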

T1 sequence (P20231 31-275): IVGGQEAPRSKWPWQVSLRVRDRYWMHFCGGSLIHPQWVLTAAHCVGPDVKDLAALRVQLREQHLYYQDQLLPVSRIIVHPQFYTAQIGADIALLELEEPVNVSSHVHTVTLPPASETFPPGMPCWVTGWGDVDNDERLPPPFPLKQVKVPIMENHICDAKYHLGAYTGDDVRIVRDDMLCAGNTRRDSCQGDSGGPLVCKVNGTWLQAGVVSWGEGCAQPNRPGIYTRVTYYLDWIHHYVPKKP

Which melting point does the source give for `CN(C)CCN(C)C(=O)c1ccc2c(c1)nc(CCc1ccc(C(=N)N)cc1)n2C` (as salt: hydrochloride) [Example 3, 2-[2-(4-Amidinophenyl)-ethyl]1l-methyl-benzimidazol-5-yl-carboxylic Acid-N-[2-(N,N-dimethylamino)-ethyl]-N-methyl-amide-dihydrochlonide] here?
The melting point was > 220 °C.

For `CN(Cc1ccc(C(=N)N)cc1)C(=O)c1ccc2c(c1)nc(CCc1ccc(C(=N)N)cc1)n2C` (as salt: hydrochloride) [Example 4, 2-[2-(4-Amidinophenyl)-ethyl]-1-methyl-benzimidazol-5-yl-carboxylic Acid-N-(4-amidino-benzyl)-N-methyl-amide-trihydrochloride], which melting point is on record?
Its melting point is > 220 °C.

Which melting point does the source give for `Cn1c(CCc2ccc(C(=N)N)cc2)nc2cc(C(=O)N(CCC(=N)N)Cc3cnc4ccccc4c3)ccc21` (as salt: hydrochloride) [Example 8, 2-[2-(4-Amidinophenyl)-ethyl]-1-methyl-benzimidazol-5-yl-carboxylic Acid-N-(2-amidinoethyl)-N-(quinolin-3-yl-methyl)-amide-dihydrochloride] here?
Its melting point is > 220 °C.

With `Cn1c(CCc2ccc(C(=N)N)cc2)nc2cc(C(=O)N(CCC(=N)N)Cc3ccccc3)ccc21` (as salt: hydrochloride) [Example 9, 2-[2-(4-Amidinophenyl)-ethyl]-1-methyl-benzimidazol-5-yl-carboxylic Acid-N-(2-amidinoethyl)-N-benzyl-amide-dihydrochloride] as the compound, how does the melting point read?
Its melting point is > 220 °C.

With `Cn1c(CCc2ccc(C(=N)N)cc2)nc2cc(C(=O)N(CCC(=N)N)Cc3cccnc3)ccc21` (as salt: hydrochloride) [Example 10, 2-[2-(4-Amidinophenyl)-ethyl]-1-methyl-benzimidazol-5-yl-carboxylic Acid-N-(2-amidinoethyl)-N-(3-pyridylmethyl)-amide-dihydrochloride] as the compound, how does the melting point read?
Its melting point is 225 to 228 °C.

For `CC(C)CN(CCC(=N)N)C(=O)c1ccc2c(c1)nc(CCc1ccc(C(=N)N)cc1)n2C` (as salt: hydrochloride) [Example 11, 2-[2-(4-Amidinophenyl)-ethyl]-1-methyl-benzimidazol-5-yl-carboxylic Acid-N-(2-amidinoethyl)-N-iso-butyl-amide-dihydrochloride], which melting point is on record?
Its melting point is 204 to 210 °C.

Which melting point does the source give for `CN(C(=O)c1ccc2c(c1)nc(CCc1ccc(C(=N)N)cc1)n2C)c1cccnc1` (as salt: hydrochloride) [Example 18, 2-[2-(4-Amidinophenyl)-ethyl]-1-methyl-benzimidazol-5-yl-carboxylic Acid-N-methyl-N-(3-pyridyl)-amide-hydrochloride] here?
The melting point was > 220 °C.

Which melting point does the source give for `Cn1c(CCc2ccc(C(=N)N)cc2)nc2cc(C(=O)N(CCC(=N)N)CCc3ccccc3)ccc21` (as salt: hydrochloride) [Example 24, 2-[2-(4-Amidinophenyl)-ethyl]-1-methyl-benzimidazol-5-yl-carboxylic Acid-N-(2-amidinoethyl)-N-(2-phenylethyl)-amide-dihydrochloride] here?
Its melting point is 185 to 190 °C.

For `Cn1c(CCc2ccc(C(=N)N)cc2)nc2cc(C(=O)N(CCC(=N)N)C3CCCCCCC3)ccc21` (as salt: hydrochloride) [Example 25, 2-[2-(4-Amidinophenyl)-ethyl]-1-methyl-benzimidazol-5-yl-carboxylic Acid-N-(2-amidinoethyl)-N-cyclooctyl-amide-dihydrochloride], which melting point is on record?
Its melting point is 200 to 210 °C.

With `Cc1ccc(N(CCC(=N)N)C(=O)c2ccc3c(c2)nc(CCc2ccc(C(=N)N)cc2)n3C)cc1` (as salt: hydrochloride) [Example 26, 2-[2-(4-Amidinophenyl)-ethyl]-1-methyl-benzimidazol-5-yl-carboxylic Acid-N-(2-amidinoethyl)-N-(4-methyl-phenyl)-amide-dihydrochloride] as the compound, how does the melting point read?
The melting point was 222 to 225 °C.

Which melting point does the source give for `CC(C)N(CCC(=N)N)C(=O)c1ccc2c(c1)nc(CCc1ccc(C(=N)N)cc1)n2C` (as salt: hydrochloride) [Example 27, 2-[2-(4-Amidinophenyl)-ethyl]-1-methyl-benzimidazol-5-yl-carboxylic Acid-N-(2-amidinoethyl)-N-iso-propyl-amide-dihydrochloride] here?
Its melting point is 195 to 200 °C.

For `Cn1c(CCc2ccc(CN)cc2)nc2cc(C(=O)NCCC(c3ccccc3)c3ccccc3)ccc21` (as salt: hydrochloride) [Example 40, 2-[2-(4-Aminomethyl-phenyl)-ethyl]-1-methyl-benzimidazol-5-yl-carboxylic Acid-N-(3,3-diphenylpropyl)-amide-dihydrochloride], which melting point is on record?
The melting point was 140 °C.

Which melting point does the source give for `Cn1c(CCc2ccc(CN)cc2)nc2cc(C(=O)N(CCC(c3ccccc3)c3ccccc3)Cc3ccc(CN)cc3)ccc21` (as salt: hydrochloride) [Example 43, 2-[2-(4-Aminomethyl-phenyl)-ethyl]-1-methyl-benzimidazol-5-yl-carboxylic Acid-N-(4-aminomethylbenzyl)-N-(3,3-diphenylpropyl)-amide-dihydrochloride] here?
Its melting point is 140 °C.

Which IC50 (rh beta tryptase) does the source give for `Cl.Cl.Cn1c(CCc2ccc(C(=N)N)cc2)nc2cc(C(=O)N(CCN(Cc3ccccc3)Cc3ccccc3)C3CCCCC3)ccc21` [Example 2, 2-[2-(4-Amidinophenyl)ethyl]-1-methyl-benzimidazol-5-yl-carboxylic Acid-N-[2-(N,N-dibenzylamino)ethyl]-N-cyclohexyl-amide-dihydrochloride] here?
The IC50 was 0.153 µM.

What about the melting point of the same compound?
Its melting point is 140 to 148 °C.

With `Cn1c(CCc2ccc(C(=N)N)cc2)nc2cc(C(=O)NC(Cc3ccc(C(=N)N)cc3)C(=O)O)ccc21` (stereo not shown) [Example 30, 2-{2-[2-(4-Amidinophenyl)-ethyl]-1-methyl-benzimidazol-5-yl-carbonylamino}-3-(4-amidinophenyl)-propionic Acid-diformate] as the compound, how does the melting point read?
Its melting point is 165 °C.
